According to PMC8064090 (Biomolecules, 2021):
Read-outs that look alike come from different tables or passages of the source.

How the values were obtained:
[1] = target: T1, wild type (WT) South African HIV-1 subtype C protease (HIV-1 PR) (Human immunodeficiency virus type 1 group M subtype C, UniProt O12158); test: Enzyme inhibition assay with chromogenic substrate (Dixon method), wild type PR; format: biochemical; conditions: for Relative Resistance: WT, Ki of mutant/Ki of WT
Description: (§1) HIV-1 PR activity was measured by adding a purified enzyme (100–300 nM) to 300 µM of the chromogenic substrate Lys-Ala-Arg-Val-Nle-p-nitro-Phe-Glu-Ala-Nle amide (Sigma-Aldrich, St. Louis, MO, USA) dissolved in buffer D (50 mM sodium acetate buffer containing 100 mM NaCl (pH 5.0)) at 37 °C. The change in absorbance upon hydrolysis of the substrate by HIV-1 PR was monitored, and an extinction coefficient of 1800 M-1 cm-1 at a wavelength of 300 nm was used to convert the absorbance change to reaction rates. […] The data obtained were analyzed by plotting the reciprocal of substrate hydrolysis against substrate concentration (Lineweaver–Burk method to determine the Km and Kcat) and inhibitor concentration (Dixon method to determine the Ki) respectively.

[2] = target: T2, HIV-1 PR MUT-1 (M46I, I54V, V82A, L10F) (Human immunodeficiency virus type 1 group M subtype C, UniProt O12158, I538V/L494F/M530I/V566A); test: biochemical
Description: as §1

[3] = target: HIV-1 PR MUT-2 (M46I, I54V, L76V, V82A, L33F, L10F) (Human immunodeficiency virus type 1 group M subtype C, UniProt O12158, I538V/L494F/L517F/L560V/M530I/V566A); test: biochemical
Description: as §1

[4] = target: T3, HIV-1 PR MUT-3 (M46I, I54V, L76V, V82A, L90M, F53L) (Human immunodeficiency virus type 1 group M subtype C, UniProt O12158, F537L/I538V/L560V/L574M/M530I/V566A); test: biochemical
Description: as §1

[5] = target: T1, wild type (WT) South African HIV-1 subtype C protease (HIV-1 PR); test: Intrinsic tryptophan fluorescence quenching assay, wild type PR; format: binding
Description: (§2) Fluorescent spectra were recorded as described previously using a PerkinElmer LS 55 spectrometer with a 1.0 cm quartz cell (PerkinElmer, Waltham, MA, USA) and connected to a thermostat-controlled bath. This assay utilized the intrinsic tryptophan (Trp) fluorescence by causing the excitation of the π–π* transition in the tryptophan residues. Two Trp residues are found at positions 6 and 42 in each monomer of HIV-1 PR. Trp 6 is located close to the active site, and Trp 42 is found close to the flap of the HIV-1 PR. The position of the Trp residues on the enzyme surface makes them good probes in monitoring changes in the HIV-1 PR tertiary structure. The protein was excited at 295 nm, and fluorescence measurements were recorded from 300 to 420 nm at room temperature (25 °C). The excitation and emission slit widths were set at 5 nm, and the fluorescence spectra were acquired at 500 nm/min. The obtained fluorescence data was corrected and smoothened by running control samples of the buffer. For the fluorescence quenching study, […] of HIV-1 PR and varying inhibitor concentration from 10 to 500 nM were used. For every reaction, a new enzyme solution was used. The decrease in intrinsic Trp fluorescence (F0–F) at each concentration of inhibitor was fitted to the equation (F0–F) = ΔFmax/(1 + (Ki/[I]) to determine Ki and ΔFmax values using the Origin(Pro), 2019 (OriginLab Corporation, Northampton, MA, USA). The Stern–Volmer quenching constants (Ksv) were also calculated by fitting the data into the equation F0/F = 1 + Ksv (Q). The Stern–Volmer constant reports the accessibility of fluorophores to a quencher and the solvent accessibility of the fluorophore. Thus, it is an essential tool that can be used to probe the conformational changes around a fluorophore in proteins. […] The inner filter effect was corrected by using the formula Fc = Fantilog[(Aex + Aem)/2], where Fc is the corrected measurement and F is the measured fluorescence intensities, respectively, Aex is solution absorbance at the excitation, and Aem emission wavelengths.

[6] = target: T4, HIV-1 PR MUT-2 (M46I, I54V, L76V, V82A, L10F, L33F) (Human immunodeficiency virus type 1 group M subtype C, UniProt O12158, I538V/L494F/L517F/L560V/M530I/V566A); test: Intrinsic tryptophan fluorescence quenching assay, MUT-2 PR; format: binding, HIV-1 subtype C; conditions: MUT-2 HIV-1 PR; for Ki: tryptophan fluorescence, 25 °C
T4 construct: The HIV-1 PR is a 99 amino acid homodimer; made in house; host or cells: Escherichia coli (NEBExpress)
Description: as §2, with “used.” for “used. The decrease in intrinsic Trp fluorescence (F0–F) at each concentration of inhibitor was fitted to the equation (F0–F) = ΔFmax/(1 + (Ki/[I]) to determine Ki and ΔFmax values using the Origin(Pro), 2019 (OriginLab Corporation, Northampton, MA, USA). The Stern–Volmer quenching constants (Ksv) were also calculated by fitting the data into the equation F0/F = 1 + Ksv (Q). The Stern–Volmer constant reports the accessibility of fluorophores to a quencher and the solvent accessibility of the fluorophore. Thus, it is an essential tool that can be used to probe the conformational changes around a fluorophore in proteins.”

[7] = target: wild type South African HIV-1 subtype C PR; conditions: previous study ref 71; cited from earlier work
[8] = target: wild-type subtype B HIV-1 PR; conditions: cited from earlier work
[9] = target: T2, HIV-1 PR MUT-1 (M46I, I54V, V82A, L10F); test: biochemical; format: binding, HIV-1 subtype C; set-up: The HIV-1 PR is a 99 amino acid homodimer; made in house; host or cells: Escherichia coli (NEBExpress); conditions: for Stern–Volmer quenching constant (Ksv): MUT-1 HIV-1 PR
Description: as §2, with “used.” for “used. The decrease in intrinsic Trp fluorescence (F0–F) at each concentration of inhibitor was fitted to the equation (F0–F) = ΔFmax/(1 + (Ki/[I]) to determine Ki and ΔFmax values using the Origin(Pro), 2019 (OriginLab Corporation, Northampton, MA, USA). The Stern–Volmer quenching constants (Ksv) were also calculated by fitting the data into the equation F0/F = 1 + Ksv (Q). The Stern–Volmer constant reports the accessibility of fluorophores to a quencher and the solvent accessibility of the fluorophore. Thus, it is an essential tool that can be used to probe the conformational changes around a fluorophore in proteins.”

[10] = target: T3, HIV-1 PR MUT-3 (M46I, I54V, L76V, V82A, L90M, F53L); test: biochemical; format: binding, HIV-1 subtype C; set-up: The HIV-1 PR is a 99 amino acid homodimer; made in house; host or cells: Escherichia coli (NEBExpress); conditions: for Stern–Volmer quenching constant (Ksv): MUT-3 HIV-1 PR
Description: as §2, with “used.” for “used. The decrease in intrinsic Trp fluorescence (F0–F) at each concentration of inhibitor was fitted to the equation (F0–F) = ΔFmax/(1 + (Ki/[I]) to determine Ki and ΔFmax values using the Origin(Pro), 2019 (OriginLab Corporation, Northampton, MA, USA). The Stern–Volmer quenching constants (Ksv) were also calculated by fitting the data into the equation F0/F = 1 + Ksv (Q). The Stern–Volmer constant reports the accessibility of fluorophores to a quencher and the solvent accessibility of the fluorophore. Thus, it is an essential tool that can be used to probe the conformational changes around a fluorophore in proteins.”

[11] = test system: HIV-1 PR MUT-1 (M46I, I54V, V82A, L10F); test: biochemical; conditions: MUT-1; Ki of mutant/Ki of WT
Description: as §1

[12] = test system: HIV-1 PR MUT-2 (M46I, I54V, L76V, V82A, L33F, L10F); test: biochemical; conditions: MUT-2; Ki of mutant/Ki of WT
Description: as §1

[13] = test system: HIV-1 PR MUT-3 (M46I, I54V, L76V, V82A, L90M, F53L); test: biochemical; conditions: MUT-3; Ki of mutant/Ki of WT
Description: as §1

[14] = target: multidrug-resistant forms of HIV-1 subtype B PR harboring numerous major and minor mutations; conditions: cited from earlier work

T4 sequence (O12158 485-583 L494F/L517F/M530I/I538V/L560V/V566A): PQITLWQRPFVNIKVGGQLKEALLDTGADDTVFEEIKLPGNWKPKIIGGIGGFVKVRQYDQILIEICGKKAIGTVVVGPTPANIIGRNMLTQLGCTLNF
T1 sequence (O12158 485-583): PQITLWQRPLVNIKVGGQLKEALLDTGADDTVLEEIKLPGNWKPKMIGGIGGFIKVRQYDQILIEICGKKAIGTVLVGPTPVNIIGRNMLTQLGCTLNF
T2 sequence (O12158 485-583 L494F/M530I/I538V/V566A): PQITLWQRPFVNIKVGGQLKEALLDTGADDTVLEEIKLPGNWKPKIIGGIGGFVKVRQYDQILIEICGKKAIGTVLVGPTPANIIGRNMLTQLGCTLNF
T3 sequence (O12158 485-583 M530I/F537L/I538V/L560V/V566A/L574M): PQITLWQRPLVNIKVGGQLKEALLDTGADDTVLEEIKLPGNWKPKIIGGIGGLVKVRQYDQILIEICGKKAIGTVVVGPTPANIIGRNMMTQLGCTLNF
Chain of HIV-1 PR MUT-2 (M46I, I54V, L76V, V82A, L33F, L10F) (Human immunodeficiency virus type 1 group M subtype C, UniProt O12158, I538V/L494F/L517F/L560V/M530I/V566A) (O12158 485-583 L494F/L517F/M530I/I538V/L560V/V566A): as the sequence (O12158 485-583 L494F/L517F/M530I/I538V/L560V/V566A) above

SMILES | Ki [1] | Relative Resistance [1] | Ki [2] | Ki [3] | Ki [4] | Ki [5] | Stern–Volmer quenching constant (Ksv) [6] | Ki [6] | Ki [7] | Ki [9] | Stern–Volmer quenching constant (Ksv) [9] | Ki [10] | Stern–Volmer quenching constant (Ksv) [10] | other results
CC(C)CN(C[C@@H](O)[C@H](Cc1ccccc1)NC(=O)O[C@H]1CO[C@H]2OCC[C@H]21)S(=O)(=O)c1ccc(N)cc1 [DRV, darunavir] | 1.58 ± 0.11 nM | 1.00 | 5.53 ± 0.09 nM | 7.8 ± 0.71 nM | 11.5 ± 1.09 nM | 8.12 nM | 0.009 nM⁻¹ | 32.9 nM | 1.4 ± 0.2 nM | 26.3 nM | 0.01 nM⁻¹ | 44.7 nM | 0.005 nM⁻¹ | Stern–Volmer quenching constant (Ksv) ([5]; WT HIV-1 PR): 0.030 nM⁻¹; Ki ([8]; wild type subtype B HIV-1 PR): ~0.005 nM
Cc1cccc(C)c1OCC(=O)N[C@@H](Cc1ccccc1)[C@@H](O)C[C@H](Cc1ccccc1)NC(=O)[C@H](C(C)C)N1CCCNC1=O [LPV, lopinavir] | 2.13 ± 0.23 nM | 1.00 | 46.5 ± 0.14 nM | 52.6 ± 0.65 nM | 76.26 ± 0.09 nM | 17.2 nM | 0.004 nM⁻¹ | 79.5 nM | 2.1 ± 0.2 nM | 54.7 nM | 0.004 nM⁻¹ | 113 nM | 0.003 nM⁻¹ | Relative Resistance [11]: 21.83; Relative Resistance [12]: 24.71; Relative Resistance [13]: 35.80; Stern–Volmer quenching constant (Ksv) [5]: 0.02 nM⁻¹; Ki ([8]; wild-type subtype B HIV-1 PR): ~0.02 nM; Ki [14]: 0.44 to 260 nM
